Measurements reported in patent US8981114B2, “Derivatives of 1-(substituted sulfonyl)-2-aminoimidazoline as antitumor and antiproliferative agents” (OncoArendi Therapeutics Sp. z.o.o., priority 2013, dated 2015).

Tested on: colon human tumor (HT-29) cells
Experiment: Cell growth inhibitory activity, standard MTT assay
Assay type: cell-based
Settings: Homo sapiens, MTT assay after 72 hr exposure, 0.1% DMSO, read-out: IC50 range
Experimental: Cell growth inhibitory activity of compounds of this invention was determined using a standard MTT assay. Adherent cells of colon human tumor (HT-29) sourced from ATCC (cells number: HTB-38) were treated with DMSO solutions of tested compounds with the ultimate concentration of DMSO in the test solution being 0.1%. Following the 72 hour long treatment MTT was added, and after a brief incubation the resulting formazan was dissolved in addional DMSO and the solutions were scanned using 570 nm wavelength.

In the case of `CC(C)NC(=O)N1CCc2cc(S(=O)(=O)N3C[C@H](c4ccccc4)N=C3N)ccc21` [Example 98], the IC50 is reported as < 100 nM.

Same assay, conditions: MTT assay after 72 hr exposure, 0.1% DMSO, read-out: IC50 range

`CC1Cc2cc(S(=O)(=O)N3CC(c4ccccc4)N=C3N)ccc2N1C(=O)c1ccc(N)cc1` (mixture of isomers) [Example 54] and `CN(C)c1ccc(C(=O)N2CCc3cc(S(=O)(=O)N4C[C@H](c5ccccc5)N=C4N)ccc32)cc1` [Example 46] cannot be ordered by IC50: < 100 nM for the first, < 100 nM for the second.

`NC1=N[C@@H](c2ccccc2)CN1S(=O)(=O)c1ccc2c(c1)CCN2C(=O)c1ccco1` [Example 35] and `NC1=N[C@@H](c2ccccc2)CN1S(=O)(=O)c1ccc2c(c1)CCN2C(=O)c1cccs1` [Example 38] cannot be ordered by IC50: < 100 nM for the first, < 100 nM for the second.

`CC(C)[C@H]1CN(S(=O)(=O)c2ccc3c(c2)CCN3C(=O)c2ccco2)C(N)=N1` [Example 36] and `NC1=N[C@@H](C2CCCCC2)CN1S(=O)(=O)c1ccc2c(c1)CCN2C(=O)c1ccco1` [Example 37] cannot be ordered by IC50: < 100 nM for the first, < 100 nM for the second.

First: CC(=O)N1CCc2cc(S(=O)(=O)N3C[C@H](c4ccccc4)N=C3N)ccc21 [Example 39]
Second: CCC(=O)N1CCc2cc(S(=O)(=O)N3C[C@H](c4ccccc4)N=C3N)ccc21 [Example 40]
The IC50 of the first is higher: 100 to 500 nM for the first, < 100 nM for the second. The second is the more potent here.

Going from `CCCC(=O)N1CCc2cc(S(=O)(=O)N3C[C@H](c4ccccc4)N=C3N)ccc21` [Example 41] to `CCCC(=O)N1CCc2cc(S(=O)(=O)N3C[C@@H](c4ccccc4)N=C3N)ccc21` [Example 57], the IC50 rises from < 100 nM to > 500 nM.

`CC(C)C(=O)N1CCc2cc(S(=O)(=O)N3C[C@H](c4ccccc4)N=C3N)ccc21` [Example 42] and `COC(=O)N1CCc2cc(S(=O)(=O)N3C[C@H](c4ccccc4)N=C3N)ccc21` [Example 49] cannot be ordered by IC50: < 100 nM for the first, < 100 nM for the second.

`NC1=N[C@@H](c2ccccc2)CN1S(=O)(=O)c1ccc2c(c1)CCN2C(=O)Cc1cccs1` [Example 43] and `NC1=N[C@@H](c2ccccc2)CN1S(=O)(=O)c1ccc2c(c1)CCN2C(=O)Cc1ccccc1` [Example 48] cannot be ordered by IC50: < 100 nM for the first, < 100 nM for the second.

`NC1=N[C@@H](c2ccccc2)CN1S(=O)(=O)c1ccc2c(c1)CCN2C(=O)c1ccccc1` [Example 44] and `NC1=N[C@@H](c2ccccc2)CN1S(=O)(=O)c1ccc2c(c1)CCN2C(=O)c1cccnc1` [Example 53] cannot be ordered by IC50: < 100 nM for the first, < 100 nM for the second.

`CCOc1ccc(C(=O)N2CCc3cc(S(=O)(=O)N4C[C@H](c5ccccc5)N=C4N)ccc32)cc1` [Example 47] and `NC1=N[C@@H](c2ccccc2)CN1S(=O)(=O)c1ccc2c(c1)CCN2C(=O)c1cccc2ccccc12` [Example 52] cannot be ordered by IC50: < 100 nM for the first, < 100 nM for the second.

`CC(=O)N1CCC(C(=O)N2CCc3cc(S(=O)(=O)N4C[C@H](c5ccccc5)N=C4N)ccc32)CC1` [Example 50] and `NC1=N[C@@H](c2ccccc2)CN1S(=O)(=O)c1ccc2c(c1)CCN2C(=O)C1CCCCC1` [Example 51] cannot be ordered by IC50: < 100 nM for the first, < 100 nM for the second.

`CC(C)NC(=S)N1CCc2cc(S(=O)(=O)N3C[C@H](c4ccccc4)N=C3N)ccc21` [Example 55] and `CCCNC(=O)N1CCc2cc(S(=O)(=O)N3C[C@H](c4ccccc4)N=C3N)ccc21` [Example 82] cannot be ordered by IC50: < 100 nM for the first, < 100 nM for the second.

`CCCC(=O)N1CCCc2cc(S(=O)(=O)N3C[C@H](c4ccccc4)N=C3N)ccc21` [Example 56] and `CCCCNC(=O)N1CCc2cc(S(=O)(=O)N3C[C@H](c4ccccc4)N=C3N)ccc21` [Example 89] cannot be ordered by IC50: < 100 nM for the first, < 100 nM for the second.

Compared with `COc1ccc([C@H]2CN(S(=O)(=O)c3ccc4c(c3)CCN4C(=O)c3cccn3C)C(N)=N2)cc1` [Example 62], `Cc1cccc([C@H]2CN(S(=O)(=O)c3ccc4c(c3)CCN4C(=O)c3cccn3C)C(N)=N2)c1` [Example 65] is lower in IC50: > 500 nM for the first, 100 to 500 nM for the second.

`Cn1cccc1C(=O)N1CCc2cc(S(=O)(=O)N3C[C@H](c4ccccc4Cl)N=C3N)ccc21` [Example 64] and `CCCNC(=O)N1CCc2cc(S(=O)(=O)N3C[C@H](c4ccccc4C)N=C3N)ccc21` [Example 87] cannot be ordered by IC50: < 100 nM for the first, < 100 nM for the second.

`NC1=N[C@@H](c2ccccc2)CN1S(=O)(=O)c1ccc2c(c1)CCN2` [Example 70] and `NC1=N[C@@H](c2ccccc2)CN1S(=O)(=O)c1ccc2c(c1)CCN2C(=O)NCC1CC1` [Example 100] cannot be ordered by IC50: < 100 nM for the first, < 100 nM for the second.

`COCCNC(=O)N1CCc2cc(S(=O)(=O)N3CCN=C3N)ccc21` [Example 76] and `CCCNC(=O)N1CCc2cc(S(=O)(=O)N3C[C@H](c4ccc(OC)cc4)N=C3N)ccc21` [Example 84] fall in the same range of IC50: 100 to 500 nM for the first, 100 to 500 nM for the second.

First: CCCNC(=O)N1CCc2cc(S(=O)(=O)N3C[C@H](c4ccc(F)cc4)N=C3N)ccc21 [Example 83]
Second: CCCCNC(=O)N1CCc2cc(S(=O)(=O)N3C[C@H](c4ccc(Cl)cc4)N=C3N)ccc21 [Example 97]
The IC50 of the first is lower: < 100 nM for the first, 100 to 500 nM for the second.

`CCCCNC(=O)N1CCc2cc(S(=O)(=O)N3C[C@H](c4cccc(Cl)c4)N=C3N)ccc21` [Example 93] and `CCCCNC(=O)N1CCc2cc(S(=O)(=O)N3C[C@H](c4ccccc4C)N=C3N)ccc21` [Example 95] cannot be ordered by IC50: < 100 nM for the first, < 100 nM for the second.

`CC(C)(C)CNC(=O)N1CCc2cc(S(=O)(=O)N3C[C@H](c4ccccc4)N=C3N)ccc21` [Example 102] was tested, and the IC50 was < 100 nM.
